In patent US20250084372A1, “IN VITRO DERIVATION OF GONADAL SOMATIC CELLS” (Conception Bisosciences, Inc., priority 2020, published 2025):

How the values were obtained:
[1] = test system: ovarian somatic cells (OSCs); experiment: OSC induction with different FGF family members, marker expression; format: cell-based, human; settings: 10 ng/mL FGF in granulosa double medium
Experimental: Fibroblast growth factors (FGFs) are a large family of proteins that are important for signaling events in a wide variety of processes. […] Briefly, gonadal cells were induced in granulosa doublemedium comprising different FGFs, and the expression of bipotential gonadal markers as well as that of granulosa markers were measured in the resulting cells.
The replated cells from the second intermediate population were incubated in the granulosa double medium (also referred to as gonadal induction medium or OSC induction medium) according to Table 18, with the same concentration of either FGF2, 9, 10, 16, 17, 18 or 19. The expression of bipotential gonadal markers (WT1, LHX9, GADD45G and GATA4) as well as granulosa markers (FOXL2, NR1H4 and KITLG) were measured in the resulting cells.

[2] = test system: second intermediate cell population; experiment: Induction of second intermediate (IM) cell population: survival and morphology, phase contrast; format: cell-based, human; settings: 5 days in IM-induction media, increasing concentration
Experimental: The cell suspension was centrifuged at 1200 RPM for 5 min and the supernatant was discarded. The centrifuged cells were resuspended in 1 ml of GK2 medium and the cells were counted. About 720,000 cells (from 24 well plate: 30,000 cells per well) were added to 12 mL IM-induction medium (as prepared in Table 10, but without the ROCK inhibitor). 12 μL ROCK inhibitor Y-27632 (1000×) or 36 μL of CET (3:1000) (final concentration of CET in media: 50 nM Chroman1, 5 μM Emricasan, 0.7 μM Trans-ISRIB) was added to obtain 60,000 cells/mL. 500 μL of the solution was placed in each well of fibronectin coated 24-well plate (about 30,000 cells/well). The plates were cultured for 24 hours, and then 80% of the media was replaced with fresh IM-induction media without the ROCK inhibitor. 80% of the media was again replaced every other day until the cells became confluent (about 5-6 days). Once the cells were confluent, the cells were passaged to fresh fibronectin-coated 24-well plates, with at least 50,000 cells per well after passage (25k/cm^2). About 4-5 million second intermediate cells were produced per 24 well plate. […]

[3] = test system: second intermediate cell population (LHX1, PAX2, WT1, RUNX1); experiment: Intermediate mesoderm marker expression in second intermediate cell population; format: cell-based, human; settings: increasing concentration; for expression of intermediate mesoderm markers WT1 and RUNX1: CHIR 0.5, 1 or 2 μM, RA or TTNPB 0, 0.1, 0.5 or 1 μM
Experimental: The cell suspension was centrifuged at 1200 RPM for 5 min and the supernatant was discarded. The centrifuged cells were resuspended in 1 ml of GK2 medium and the cells were counted. […] The plates were cultured for 24 hours, and then 80% of the media was replaced with fresh IM-induction media without the ROCK inhibitor. 80% of the media was again replaced every other day until the cells became confluent (about 5-6 days). Once the cells were confluent, the cells were passaged to fresh fibronectin-coated 24-well plates, with at least 50,000 cells per well after passage (25k/cm^2).

[4] = test system: ovarian somatic cells (OSCs); experiment: Concentration titration of BMP4, follistatin and FGF2 in OSC induction, qPCR for GATA4 and FOXL2; format: cell-based, human; settings: BMP4 20 ng/mL, follistatin removed
Experimental: Various concentration titrations of BMP4, Follistatin and FGF were tested in OSC induction, and the resulting cells were examined for expression of bipotential gonadal markers as well as that of granulosa markers.
The OSCs were induced based on the protocols described in Example 6, but with various concentrations of BMP4. Follistatin and FGF tested.
The OSC induction conditions were first tested by varying the BMP4 concentration. […] The gene expression of resulting cells was tested by qPCR for bi-potential gonadal cell markers (GATA4) as well as for granulosa cell markers (FOXL2) (FIGS. 12A and 12B respectively). Expression of GATA4 increased with higher BMP4 concentration, and FOXL2 expression appeared to peak at 10 ng/ml of BMP4 under the conditions tested.
Four different concentrations of follistatin were then tested in OSC induction, with the concentration of BMP4 kept constant at 20 ng/ml as previously described. The gene expression of resulting cells was tested by qPCR for bi-potential gonadal cell markers (GATA4) as well as for granulosa cell markers (FOXL2) (FIGS. 12C and 12D respectively). […] The generation of mature OSCs were also examined by FOXL2 expression. […] In subsequent experiments, OSC induction in the absence or at lower concentrations of follistatin was further explored. […]

[5] = test system: ovarian somatic cells (OSCs); experiment: RA concentration and exposure gradient during OSC induction, FOXL2 and KRT19 staining; settings: 10-step gradient 0 μM to 10 μM
[6] = test system: OSCs
Experimental: To assay whether the gonadal somatic cells (such as the ovarian somatic cells—OSCs) generated from pluripotent stem cells are functional, expression of CYP19A1 was assayed by qPCR, and steroidogenesis was measured by ELISA for estradiol.
A first intermediate cell population expressing markers representative of mesoderm, and a second intermediate cell population expressing markers representative of intermediate mesoderm, and the OSCs were generated according to the protocols described in Example 6.

FGF19: fibroblast growth factor family member
expression of bipotential gonadal markers (WT1, LHX9, GADD45G, GATA4) compared to FGF2 [1]: comparable or higher | expression of granulosa markers (FOXL2, NR1H4, KITLG) compared to corresponding medium [1]: comparable

C/C(=C\c1ccc(C(=O)O)cc1)c1ccc2c(c1)C(C)(C)CCC2(C)C [TTNPB]
cell survival and cellular morphology of second intermediate cell population [2]: increased cell survival and uniform cellular morphology | expression of intermediate mesoderm markers WT1 and RUNX1 [3]: increasing expression

FGF16: fibroblast growth factor family member
expression of bipotential gonadal markers (WT1, LHX9, GADD45G, GATA4) compared to FGF2 [1]: comparable or higher | expression of granulosa markers (FOXL2, NR1H4, KITLG) compared to corresponding medium [1]: comparable

FGF2
FGF2 concentration at which GATA4 and FOXL2 expression reach saturation [4]: 20 ng/mL

CC1=C(/C=C/C(C)=C/C=C/C(C)=C/C(=O)O)C(C)(C)CCC1 [RA, retinoic acid]
RA concentration at which KRT19 staining peaked [5]: around 500 nM

Cc1c[nH]c(-c2cnc(NCCNc3ccc(C#N)cn3)nc2-c2ccc(Cl)cc2Cl)n1 [CHIR, CHIR99021]
expression of intermediate mesoderm markers WT1 and RUNX1 [3]: increased expression | expression of intermediate mesoderm markers LHX1 and PAX2 ([3]; CHIR 1, 2 or 3 μM, RA 50 nM, 100 nM, 500 nM or 1 μM): increased expression

C[C@]12CCC(=O)C[C@@H]1CC[C@@H]1[C@@H]2CC[C@]2(C)[C@@H](O)CC[C@@H]12 [dHT, dihydroxy-testosterone]
estradiol levels in the media, 48 hrs compared to 24-hr incubation ([6]; 50 ng/ml, 48 hrs): further increase | estradiol levels in the media ([6]; 24-hr incubation, higher concentration): increased
